Test results reported in patent US8377929B2, “Crystalline forms of the tri-mesylate salt of perphenazine-GABA and process of producing the same” (Ramot at Tel-Aviv University Ltd., priority 2010, dated 2013).

Tests used:
Format in all cases: physicochemical
[1] = BET surface area (nitrogen absorption); conditions: 11-point BET, outgassed at 40° C. under vacuum
Protocol: Surface area data were collected using nitrogen absorption on a BET Micrometics Gemini V (11-point BET analysis) analyzer. The samples were outgassed at 40° C. under vacuum for at least 2 hours. SRM 1899 and SRM 1900 were used as the calibration standards.

[2] = Particle size (Malvern MS2000); parameters: unit not given here; conditions: particle size distribution, 0.1% SPAN 85 in hexane, sonication 10 seconds, unit μm
Description: Particle size data was acquired using a Malvern Instruments MS2000 equipped with a Hydro2000 μP dispersion unit. Data was collected and analyzed with Mastersizer 2000 v. 5.1 software, using volume based measurements. NIST traceable glass beads were used as the reference standard. […] Model: general purpose; Sensitivity: normal.

Bulk and tapped density = experiment: Bulk and tapped density
Description: Samples were submitted to Particle Technology Labs (PTL), Downers Grove, Ill., for bulk and tapped density analyses.

[3] = Moisture absorption/desorption (DVS); conditions: for Weight gain from 5-55% RH / Weight gain from 55-95% RH: DVS adsorption phase; for Weight gain from 55-95% RH: samples did not reach equilibration; for Weight loss from 95-5% RH: DVS desorption phase; for Weight loss at 5% RH: DVS, upon equilibration to 5% RH
Protocol: Moisture absorption/desorption (DVS) data was collected on a VTI SGA-100 Vapor Sorption Analyzer. Absorption and desorption data were collected over a range of 5% to 95% relative humidity (RH) at 10% RH intervals under a nitrogen purge. Samples were not dried prior to analyses. Equilibrium criteria used for analyses were less than 0.0100% weight change in 5 minutes, with a maximum equilibrium time of 3 hours if the weight criterion was not met. Data were not corrected for the initial moisture content of the samples. NaCl and PVP were used as calibration standards.

[4] = Stability and hygroscopy of crystalline Form B compared to crystalline Form A; conditions: as compared to crystalline Form A

CS(=O)(=O)O.CS(=O)(=O)O.CS(=O)(=O)O.NCCCC(=O)OCCN1CCN(CCCN2c3ccccc3Sc3ccc(Cl)cc32)CC1 [BL-1020 MSA salt crystalline Form B, perphenazine 4-aminobutyrate trimesylate]
BET surface area ([1]; listed as 01BIL02-01-22): 4.77 m^2/g
BET surface area ([1]; listed as 01BIL02-02-22): 4.55 m^2/g
BET surface area ([1]; listed as 01BIL02-03-22): 4.93 m^2/g
BET surface area ([1]; listed as 01BIL02-04-22): 4.57 m^2/g
BET surface area ([1]; listed as 01BIL02-05-26): 2.67 m^2/g
BET surface area ([1]; listed as 06-01915-3): 4.84 m^2/g
d10 ([2]; listed as 01BIL02-01-22): 2.1
d50 ([2]; listed as 01BIL02-01-22): 5.8
d90 ([2]; listed as 01BIL02-01-22): 18.3
d10 ([2]; listed as 01BIL02-02-22): 2.1
d50 ([2]; listed as 01BIL02-02-22): 6.1
d90 ([2]; listed as 01BIL02-02-22): 22.5
d10 ([2]; listed as 01BIL02-03-22): 2.1
d50 ([2]; listed as 01BIL02-03-22): 6.2
d90 ([2]; listed as 01BIL02-03-22): 19.7
d10 ([2]; listed as 01BIL02-04-22): 2.3
d50 ([2]; listed as 01BIL02-04-22): 6.8
d90 ([2]; listed as 01BIL02-04-22): 21.8
d10 ([2]; listed as 06-01915-3): 3.8
d50 ([2]; listed as 06-01915-3): 9.3
d90 ([2]; listed as 06-01915-3): 41.8
Bulk density (Bulk and tapped density; listed as 01BIL02-01-22): 0.16 g/mL
Tapped density (Bulk and tapped density; listed as 01BIL02-01-22): 0.25 g/mL
Bulk density (Bulk and tapped density; listed as 01BIL02-02-22): 0.16 g/mL
Tapped density (Bulk and tapped density; listed as 01BIL02-02-22): 0.24 g/mL
Bulk density (Bulk and tapped density; listed as 01BIL02-03-22): 0.18 g/mL
Tapped density (Bulk and tapped density; listed as 01BIL02-03-22): 0.26 g/mL
Bulk density (Bulk and tapped density; listed as 01BIL02-04-22): 0.13 g/mL
Tapped density (Bulk and tapped density; listed as 01BIL02-04-22): 0.22 g/mL
Bulk density (Bulk and tapped density; listed as 06-01915-3): 0.18 g/mL
Tapped density (Bulk and tapped density; listed as 06-01915-3): 0.24 g/mL
Weight gain from 5-55% RH ([3]; listed as 01BIL02-01-22): 0.4%
Weight gain from 5-55% RH ([3]; listed as 01BIL02-02-22): 0.4%
Weight gain from 5-55% RH ([3]; listed as 01BIL02-03-22): 0.4%
Weight gain from 5-55% RH ([3]; listed as 01BIL02-04-22): 0.4%
Weight gain from 5-55% RH ([3]; listed as 01BIL02-05-26): 0.4%
Weight gain from 5-55% RH ([3]; listed as 06-01915-3): 0.6%
Weight gain from 55-95% RH ([3]; listed as 01BIL02-01-22): 71.6%
Weight gain from 55-95% RH ([3]; listed as 01BIL02-02-22): 69.8%
Weight gain from 55-95% RH ([3]; listed as 01BIL02-03-22): 72.7%
Weight gain from 55-95% RH ([3]; listed as 01BIL02-04-22): 70.5%
Weight gain from 55-95% RH ([3]; listed as 01BIL02-05-26): 68.9%
Weight gain from 55-95% RH ([3]; listed as 06-01915-3): 71.6%
Weight loss from 95-5% RH ([3]; listed as 01BIL02-01-22): 67.0%
Weight loss from 95-5% RH ([3]; listed as 01BIL02-02-22): 64.8%
Weight loss from 95-5% RH ([3]; listed as 01BIL02-03-22): 67.6%
Weight loss from 95-5% RH ([3]; listed as 01BIL02-04-22): 66.0%
Weight loss from 95-5% RH ([3]; listed as 01BIL02-05-26): 64.8%
Weight loss from 95-5% RH ([3]; listed as 06-01915-3): 66.9%
Weight loss at 5% RH ([3]; listed as 01BIL02-01-22): 0.1%
Weight loss at 5% RH ([3]; listed as 01BIL02-02-22): 0.1%
Weight loss at 5% RH ([3]; listed as 01BIL02-03-22): 0.1%
Weight loss at 5% RH ([3]; listed as 01BIL02-04-22): 0.1%
Weight loss at 5% RH ([3]; listed as 01BIL02-05-26): 0.3%
Weight loss at 5% RH ([3]; listed as 06-01915-3): 0.6%
Hygroscopy [4]: reduced hygroscopy
Stability [4]: higher stability
